Laboratory results from paper PMC6540076 (Drug Design, Development and Therapy, 2019).
Marks after values point to notes of the source that are not given here.

Tests used:
[1] = system: tail-withdrawal latency; experiment: Tail-flick latency test; assay type: in vivo, rats; settings: for Latency (seconds) / Latency: compounds 5 mg/kg orally, naproxen 2.5 mg/kg orally, in DMSO, mean ± SE of six rats; for Potency (%): analgesic potency after 120 minutes compared with the reference drug naproxen
[2] = system: carrageenan-induced paw edema; experiment: Carrageenan-induced rat-paw-edema assay; assay type: in vivo, rats; settings: for Potency (%): calculated compared to the reference drug naproxen; for Edema (%): compounds 5 mg/kg orally, naproxen 2.5 mg/kg orally, in DMSO, mean ± SE of six rats
[3] = system: gastric ulceration; settings: naproxen 2.5 mg/kg orally, tested compounds 5 mg/g orally in DMSO
[4] = system: tumor-bearing rats; settings: cited from earlier work
[5] = after 1 hour of induced inflammation
[6] = throughout the entire experiment

COc1ccc2cc(C(C)C(=O)NC(=S)NC(C)C(=O)O)ccc2c1 (centres unmarked) [Compound 5, 2-(3-(2-(6-methoxynaphthalen-2-yl)propanoyl)thioureido)propanoic acid]
Latency (seconds) ([1]; 30 minutes): 3.9±0.3^b seconds
Latency (seconds) ([1]; 60 minutes): 3.9±0.4^b seconds
Latency (seconds) ([1]; 120 minutes): 3.9±0.2^b seconds
Potency (%) [1]: 55.7%
Potency (%) ([2]; 1 hour): 102.5%
Edema (%) ([2]; 1 hour): 21.2±1.66%
Potency (%) ([2]; 2 hours): 64.6%
Edema (%) ([2]; 2 hours): 30.4±1.19%
Potency (%) ([2]; 3 hours): 71.1%
Edema (%) ([2]; 3 hours): 33.7±1.68%
Potency (%) ([2]; 4 hours): 71.7%
Edema (%) ([2]; 4 hours): 32.8±1.40%
anti-inflammatory activity (in words) [2, 5]: highest anti-inflammatory activity

COc1ccc2cc(C(C)C(=O)NC(=S)NCCC(=O)O)ccc2c1 (centres unmarked) [Compound 6, 3-(3-(2-(6-methoxynaphthalen-2-yl)propanoyl)thioureido)propanoic acid]
Latency ([1]; 30 minutes): 4.6 ± 0.3 s
Latency (seconds) ([1]; 60 minutes): 4.0±0.2^b seconds
Latency (seconds) ([1]; 120 minutes): 4.2±0.3^b seconds
Potency (%) [1]: 60.0%
Potency (%) ([2]; 1 hour): 67.6%
Edema (%) ([2]; 1 hour): 24.6±2.39%
Potency (%) ([2]; 2 hours): 60.0%
Edema (%) ([2]; 2 hours): 31.4±2.46%
Potency (%) ([2]; 3 hours): 64.4%
Edema (%) ([2]; 3 hours): 35.1±2.99%
Potency (%) ([2]; 4 hours): 60.3%
Edema (%) ([2]; 4 hours): 35.3±3.06%
anti-inflammatory activity (in words) [2, 5]: moderate potency

COc1ccc2cc(C(C)C(=O)NC(=S)NC(CO)C(=O)O)ccc2c1 (centres unmarked) [Compound 7, 3-hydroxy-2-(3-(2-(6-methoxynaphthalen-2-yl)propanoyl)thioureido)propanoic acid]
Latency (seconds) ([1]; 30 minutes): 3.9±0.4^b seconds
Latency (seconds) ([1]; 60 minutes): 3.6±0.3^b seconds
Latency (seconds) ([1]; 120 minutes): 4.1±0.2^b seconds
Potency (%) [1]: 58.6%
Potency (%) ([2]; 1 hour): 73.9%
Edema (%) ([2]; 1 hour): 24.0±1.90%
Potency (%) ([2]; 2 hours): 73.3%
Edema (%) ([2]; 2 hours): 28.4±0.78%
Potency (%) ([2]; 3 hours): 89.8%
Edema (%) ([2]; 3 hours): 29.7±0.95%
Potency (%) ([2]; 4 hours): 85.2%
Edema (%) ([2]; 4 hours): 30.0±0.95%
anti-inflammatory activity (in words) [2, 5]: moderate potency

COc1ccc2cc(C(C)C(=O)NC(=S)NC(Cc3ccc(O)cc3)C(=O)O)ccc2c1 (centres unmarked) [Compound 8, 3-(4-hydroxyphenyl)-2-(3-(2-(6-methoxynaphthalen-2-yl)propanoyl)thioureido)propanoic acid]
Latency (seconds) ([1]; 30 minutes): 5.0±0.2^a seconds
Latency (seconds) ([1]; 60 minutes): 4.9±0.3^a,b seconds
Latency (seconds) ([1]; 120 minutes): 5.9±0.5^a seconds
Potency (%) [1]: 84.3%
Potency (%) ([2]; 1 hour): 138.4%
Edema (%) ([2]; 1 hour): 17.6±1.55%
Potency (%) ([2]; 2 hours): 111.4%
Edema (%) ([2]; 2 hours): 19.9±1.50%
Potency (%) ([2]; 3 hours): 129.2%
Edema (%) ([2]; 3 hours): 21.5±1.42%
Potency (%) ([2]; 4 hours): 131.2%
Edema (%) ([2]; 4 hours): 20.0±2.02%
anti-inflammatory activity (in words) [2, 5]: highest anti-inflammatory activity
anti-inflammatory potency relative to the reference drug ([2]; compared to naproxen): about 1.4 times
anti-inflammatory activity relative to naproxen ([2]; entire experiment, after 4 hours): 1.3 times
anti-inflammatory activity (in words) [2, 6]: highest anti-inflammatory activity

COC(=O)C(C)NC(=S)NC(=O)C(C)c1ccc2cc(OC)ccc2c1 (centres unmarked) [Compound 9, Methyl 2-(3-(2-(6-methoxynaphthalen-2-yl)propanoyl)thioureido)propanoate]
Latency (seconds) ([1]; 30 minutes): 3.7±0.2^b seconds
Latency (seconds) ([1]; 60 minutes): 3.8±0.3^b seconds
Latency (seconds) ([1]; 120 minutes): 4.0±0.3^b seconds
Potency (%) [1]: 57.1%
Potency (%) ([2]; 1 hour): 4.7%
Edema (%) ([2]; 1 hour): 30.8±1.09%
Potency (%) ([2]; 2 hours): 11.6%
Edema (%) ([2]; 2 hours): 42.2±3.50%
Potency (%) ([2]; 3 hours): 21.1%
Edema (%) ([2]; 3 hours): 44.2±3.94%
Potency (%) ([2]; 4 hours): 32.3%
Edema (%) ([2]; 4 hours): 41.3±2.99%

COC(=O)CCNC(=S)NC(=O)C(C)c1ccc2cc(OC)ccc2c1 (centres unmarked) [Compound 10, Methyl 3-(3-(2-(6-methoxynaphthalen-2-yl)propanoyl)thioureido)propanoate]
Latency (seconds) ([1]; 30 minutes): 3.1±0.3^b seconds
Latency (seconds) ([1]; 60 minutes): 4.6±0.4^b seconds
Latency (seconds) ([1]; 120 minutes): 5.7±0.2^a,b seconds
Potency (%) [1]: 81.4%
Potency (%) ([2]; 1 hour): 6.3%
Edema (%) ([2]; 1 hour): 30.7±2.38%
Potency (%) ([2]; 2 hours): 9.8%
Edema (%) ([2]; 2 hours): 42.6±2.45%
Potency (%) ([2]; 3 hours): 10.4%
Edema (%) ([2]; 3 hours): 46.4±2.61%
Potency (%) ([2]; 4 hours): 15.9%
Edema (%) ([2]; 4 hours): 44.9±3.34%

COC(=O)C(CO)NC(=S)NC(=O)C(C)c1ccc2cc(OC)ccc2c1 (centres unmarked) [Compound 11, Methyl 3-hydroxy-2-(3-(2-(6-methoxynaphthalen-2-yl)propanoyl)thioureido)propanoate]
Latency (seconds) ([1]; 30 minutes): 4.8±0.5^a seconds
Latency (seconds) ([1]; 60 minutes): 4.8±0.4^b seconds
Latency (seconds) ([1]; 120 minutes): 4.8±0.2^a,b seconds
Potency (%) [1]: 68.6%
Potency (%) ([2]; 1 hour): 66.7%
Edema (%) ([2]; 1 hour): 24.7±1.79%
Potency (%) ([2]; 2 hours): 62.2%
Edema (%) ([2]; 2 hours): 30.9±2.05%
Potency (%) ([2]; 3 hours): 32.5%
Edema (%) ([2]; 3 hours): 41.8±2.81%
Potency (%) ([2]; 4 hours): 32.1%
Edema (%) ([2]; 4 hours): 41.4±2.59%
anti-inflammatory activity (in words) [2, 5]: moderate potency

COc1ccc2cc(C(C)C(=O)NC(=S)NCCC(=O)NN)ccc2c1 (centres unmarked) [Compound 14, N-(3-hydrazinyl-3-oxopropylcarbamothioyl)-2-(6-methoxynaphthalen-2-yl)propanamide]
Latency ([1]; 30 minutes): 6.1 ± 0.4 s
Latency (seconds) ([1]; 30 minutes): 6.1±0.4^a seconds
Latency (seconds) ([1]; 60 minutes): 5.6±0.2^a seconds
Latency (seconds) ([1]; 120 minutes): 5.7±0.3^a,b seconds
Potency (%) [1]: 81.4%
Potency (%) ([2]; 1 hour): 40.3%
Edema (%) ([2]; 1 hour): 27.3±0.88%
Potency (%) ([2]; 2 hours): 32.9%
Edema (%) ([2]; 2 hours): 37.4±3.58%
Potency (%) ([2]; 3 hours): 44.9%
Edema (%) ([2]; 3 hours): 39.2±2.42%
Potency (%) ([2]; 4 hours): 26.5%
Edema (%) ([2]; 4 hours): 42.6±1.61%
anti-inflammatory activity (in words) [2, 6]: lowest anti-inflammatory potency

COc1ccc2cc(C(C)C(=O)NC(=S)NC(CO)C(=O)NN)ccc2c1 (centres unmarked) [Compound 15, N-(1-hydrazinyl-3-hydroxy–1-oxopropan-2-yl-carbamothioyl)-2-(6-methoxynaphthalen-2-yl)propanamide]
Latency ([1]; 30 minutes): 4.2 ± 0.4 s
Latency (seconds) ([1]; 60 minutes): 3.9±0.2^b seconds
Latency (seconds) ([1]; 120 minutes): 4.5±0.3^b seconds
Potency (%) [1]: 64.3%
Potency (%) ([2]; 1 hour): 120.0%
Edema (%) ([2]; 1 hour): 19.5±0.50%
Potency (%) ([2]; 2 hours): 96.8%
Edema (%) ([2]; 2 hours): 23.2±2.05%
Potency (%) ([2]; 3 hours): 88.2%
Edema (%) ([2]; 3 hours): 30.1±2.58%
Potency (%) ([2]; 4 hours): 80.5%
Edema (%) ([2]; 4 hours): 31.0±1.68%
anti-inflammatory potency (in words) ([2]; after 2, 3, and 4 hours of induced inflammation, compared to the reference drug): moderate potency
anti-inflammatory activity (in words) [2, 5]: highest anti-inflammatory activity

COc1ccc2cc([C@H](C)C(=O)O)ccc2c1 [Naproxen, reference compound]
Latency (seconds) ([1]; 30 minutes): 5.3±0.3^a seconds
Latency (seconds) ([1]; 60 minutes): 6.2±0.4^a seconds
Latency (seconds) ([1]; 120 minutes): 7.0±0.4^a seconds
Potency (%) [1]: 100%
Potency (%) ([2]; 1 hour): 100%
Edema (%) ([2]; 1 hour): 21.5±2.03%
Potency (%) ([2]; 2 hours): 100%
Edema (%) ([2]; 2 hours): 22.5±1.22%
Potency (%) ([2]; 3 hours): 100%
Edema (%) ([2]; 3 hours): 27.6±0.85%
Potency (%) ([2]; 4 hours): 100%
Edema (%) ([2]; 4 hours): 26.7±1.90%
ulcerogenic effect, macroscopic examination of the stomach [3]: moderate gastric ulceration
reduction of rate of tumor growth [4]: 58%
